In patent publication US20210393588A1, “READY TO USE I[…] OF BR[…] SALT THEREOF” (Zenvision Pharma LLP, priority 2018, published 2021):
Where two headings read alike, the source gives them in different places.

How the values were obtained:
[1] = Storage stability of aqueous solutions of Brivaracetam; assay type: physicochemical; conditions: aqueous solution
Excerpt: Also degradation products in solution are formed due to oxidation, pH ranges.

[2] = cited from earlier work

In the case of `CCC[C@@H]1CC(=O)N([C@@H](CC)C(N)=O)C1` [Brivaracetam, (2S)-2-[(4R)-2-oxo-4-propyltetrahydro-1H-pyrrol-1-yl]butanamide], the Stability during storage [1] is listed as “partially unstable”, the Solubility ([2]; acetone) is listed as “freely soluble” and the Solubility ([2]; acetonitrile) is listed as “freely soluble”. The Solubility ([2]; buffer (pH 1.2, 4.5, and 7.4)) was “very soluble”, the Solubility ([2]; ethanol) was “very soluble” and the Solubility ([2]; glacial acetic acid) was “very soluble”. For the same molecule, the Solubility ([2]; methanol) was “very soluble”, the Solubility ([2]; n-hexane) was “very slightly soluble” and the Solubility ([2]; toluene) was “soluble”. The Solubility ([2]; water) was “very soluble”.
